Experimental data from patent publication US4237311A, “2-Methyl-1-(substituted)phenyl-2-propyl esters of 2-aminopropanoic acid” (priority 1974, dated 1980).

Assays:
5-HTP response = 5-HTP response potentiation test; assay type: in vivo, mice; conditions: for minimal effective dose: Mus musculus, ip, test drug one hour (or 4, 24 hours) before dl-5-HTP 90 mg/kg i.v., mice, read-out: Potentiation of 5-HTP, effective dose (least dose producing maximal score +3 in all animals)
Text: 1. 5-HTP response potentiation test
Inhibition of the uptake of 5-HT potentiates the effects of administered 5-hydroxytryptophan (5-HTP) probably by increasing the amount of 5-HT at the receptor. […] The strength of the syndrome is scored from 0 to +3.

[1] = system: 5-HT uptake (5-hydroxytryptamine); assay: Inhibition of the uptake of 14C-5-HT (drug given i.p. in vivo, uptake in midbrain slices); design: species or system mice; conditions: ip, 0.5 h, half an hour before killing, mouse midbrain slices, 5-HT 1×10^-7 M, 5 min incubation, read-out: Inhibition (50%) of uptake in vivo, 5-HT (ED50)
Procedure: (§1) 1. Inhibition of the uptake of carbon-14 5-HT and tritiated noradrenaline in vitro and in vivo
The method is described by Ross, Renyi and Ogren in European Journal of Pharmacology 17 (1972), 107-112. […] The drugs were administered intraperitoneally half an hour before the animals were killed and the midbrain was taken out and sliced and incubated in a mixture consisting of, per 100 mg of brain slices, 0.2 n-mole of ^14 C--5--HT, 0.2 n-mole of ^3 H--NA and 11 μmole of glucose in 2 ml of Krebs-Henseleit buffer, pH 7.4. The incubation time was 5 minutes. The radioactive amines taken up in the slices were dissolved in Soluene-350®(Packard) and the amounts were determined with the double labelling technique by liquid scintillation. The dose producing 50 percent decrease of the active uptake (ED50) was determined graphically from dose response curves. Active uptake is defined as that part of the radioactive uptake which is inhibited by a high concentration of cocaine. All doses were given at least to four animals.

male rats = assay: Drug induced arrhythmias in rats; assay type: in vivo; conditions: male rats anesthetized with Nembutal, stepwise increased doses
Text: DRUG INDUCED ARRHYTHMIAS IN RATS
Test drugs were intravenously administered to male rats anesthetized with Nembutal®. The doses were increased stepwise up to the lethal dose and the first dose which induced arrhythmia was noted.

in vivo = conditions: mouse, iv, mice, killing 50% within 7 days, read-out: Acute toxicity LD50
Procedure: ACUTE TOXICITY, BEHAVIOUR AND ANTICHOLINERGIC STUDY IN MICE
The compounds were given by intravenous route to 6 mice. LD50 is the dose which kills 50% of the animals within 7 days. Seizures, gait, sedation and gripstrength were recorded.

[2] = system: NA uptake (noradrenaline); assay: Inhibition of the uptake of tritiated noradrenaline (drug given i.p. in vivo, uptake in midbrain slices); design: species or system mice; conditions: ip, 0.5 h, half an hour before killing, mouse midbrain slices, noradrenaline 1×10^-7 M, 5 min incubation, read-out: Inhibition (50%) of uptake in vivo, NA (ED50)
Procedure: as §1
The drugs were administered intraperitoneally half an hour before the animals were killed and the midbrain was taken out and sliced and incubated in a mixture consisting of, per 100 mg of brain slices, 0.2 n-mole of ^14 C--5--HT, 0.2 n-mole of ^3 H--NA and 11 μmole of glucose in 2 ml of Krebs-Henseleit buffer, pH 7.4. The incubation time was 5 minutes. The radioactive amines taken up in the slices were dissolved in Soluene-350®(Packard) and the amounts were determined with the double labelling technique by liquid scintillation. The dose producing 50 percent decrease of the active uptake (ED50) was determined graphically from dose response curves. Active uptake is defined as that part of the radioactive uptake which is inhibited by a high concentration of cocaine. All doses were given at least to four animals.

man = conditions: cited from earlier work
[3] = system: 5-hydroxytryptamine (5-HT) re-uptake mechanism; conditions: central nervous system; cited from earlier work
[4] = system: noradrenaline (NA) re-uptake mechanism; conditions: central nervous system; cited from earlier work

In the case of `CC(N)C(=O)OC(C)(C)Cc1ccc(Cl)cc1.Cl` (centres unmarked) [GEA 654, 2-aminopropanoic acid 1-(4-chlorophenyl)-2-methyl-2-propylester hydrochloride], the minimal effective dose (5-HTP response) is reported as 1 mg/kg, the ED50 [1] is reported as 15 mg/kg and the “Arrhythmia, accumulated i.v. dose where there are signs of arrhythmia” value (male rats) is reported as 63 mg/kg. For the same molecule, the LD50 at 168 h (in vivo) was 70 mg/kg and the ED50 [2] was greater than 40 mg/kg.

`CC(N)C(=O)OC(C)(C)Cc1ccc(Cl)c(Cl)c1` (centres unmarked) [GEA 699] showed a minimal effective dose (5-HTP response) of 7 mg/kg, an ED50 [1] of 15 mg/kg and an ED50 [2] greater than 40 mg/kg.

`CC(N)C(=O)OC(C)(C)Cc1ccc(F)cc1` (centres unmarked) [GEA 822] gave an ED50 [1] of 30 mg/kg and an ED50 [2] greater than 40 mg/kg.

Work on `CC(N)C(=O)OC(C)(C)Cc1ccccc1` (centres unmarked) [GEA 916] yielded a minimal effective dose (5-HTP response) of 8 mg/kg, an ED50 [1] of 15 mg/kg and an ED50 [2] greater than 40 mg/kg.

In the case of `CC(N)C(=O)OC(C)(C)Cc1ccc(Br)cc1` (centres unmarked) [GEA 917], the minimal effective dose (5-HTP response) is reported as 5 mg/kg, the ED50 [1] is reported as 25 mg/kg and the ED50 [2] is reported as greater than 40 mg/kg.

In the case of `CC(N)C(=O)OC(C)(C)Cc1cccc(Cl)c1` (centres unmarked) [GEA 935], the minimal effective dose (5-HTP response) is reported as 3 mg/kg, the ED50 [1] is reported as 5 mg/kg and the ED50 [2] is reported as greater than 40 mg/kg.

For `Cc1ccc(CC(C)(C)OC(=O)C(C)N)cc1` (centres unmarked) [GEA 937], the minimal effective dose (5-HTP response) was 12 mg/kg, the ED50 [1] was 10 mg/kg and the ED50 [2] was greater than 40 mg/kg.

In the case of `CN(C)CCCN1c2ccccc2CCc2ccccc21` [Imipramine], the “anticholinergic effect and symptoms (in words)” value (man) is listed as “anticholinergic and causes anticholinergic symptoms such as dryness of the mouth, tremor, tachycardia and sweating”, the “mood and psychomotor effect (in words)” value (man) is listed as “both mood elevating and psychomotor activating” and the “onset of the antidepressive effect” value (man; treatment with imipramine) is listed as “about 3 weeks”. The minimal effective dose (5-HTP response) was 15 mg/kg, the “potentiation of dl-5-HTP by the reference drug (in words)” value (5-HTP response; control groups, reference) was “constantly potentiated dl-5-HTP” and the “inhibition of the re-uptake mechanism of 5-hydroxytryptamine (in words)” value [3] was “inhibits the re-uptake mechanism of noradrenaline (NA) and 5-hydroxytryptamine (5-HT)”. The ED50 [1] was 24 mg/kg, the “Arrhythmia, accumulated i.v. dose where there are signs of arrhythmia” value (male rats) was 8 mg/kg and the “inhibition of the re-uptake mechanism of noradrenaline (in words)” value [4] was “inhibits the re-uptake mechanism of noradrenaline (NA)”. It also gave an ED50 [2] of 6 mg/kg.
